Assays:
[1] = Pharmacokinetic study in sham and myocardial ischemia model rats after a single oral dose of QSKL (UHPLC-psMS/MS of plasma, non-compartmental analysis); details: for AUC(0-inf): AUC0–∞
Experimental: (§1) Twelve male Spargue-Dawley rats (200 ± 20 g) were supplied by Vital River Laboratory Animal Technology Co. Ltd. (Beijing, China). […] The rats were acclimated under a humidity (50%) controlled room at 22–25 °C with a 12 h light-dark cycle, and standard diet and water were provided ad libitum for one week.
(§2) Afterwards, all rats were randomly divided into two groups, namely sham and model groups. The myocardial ischemia model was simulated by left anterior descending (LAD) coronary artery ligation [12], whilst the rats belonging to the sham group received the similar surgery, however no actual ligation in LAD. All animals were fasted overnight with free access to water prior to oral dosing. Aliquots (250 μL) of blood were sampled at 0 (pre-dose), 0.08, 0.25, 0.5, 0.75, 1, 1.5, 2, 4, 6, 8, 12, and 24 h from venous around eye socket into heparinized tubes after a single oral dosing of 8.0 g/kg of QSKL and the collected blood samples were immediately subjected for 4000 rpm centrifugation for 10 min at 4 °C to harvest the plasma samples. Each 100 μL aliquot of plasma sample was transferred into another Eppendorf tube and stored at −80 °C till use.
(§3) When analysis, 300 μL of internal standards (200 ng/mL for either internal standard) fortified ACN, corresponding to three volumes of plasma, was spiked into each thawed plasma sample and mixed thoroughly. Then, the resulting samples were processed as those calibration samples.
(§4) Individual animal plasma concentrations versus time dataset were subjected to a non-compartmental pharmacokinetic analysis using WinNonlin software (ver. 6.4, Pharsight Corp., Sunnyvale, CA, USA). The pharmacokinetic parameters of each analyte including the maximum plasma concentration (Cmax), the time at which Cmax was achieved (Tmax), the terminal elimination half-life (t1/2), and the area under the plasma concentration versus time curve (AUC0→t along with AUC0→∞) were calculated. Moreover, Lz corresponding to the ratio of the dosage and AUC0→∞, as well as mean residence time (MRT) that was defined as the ratio of the area under the first moment curve from time 0 to infinity (AUMC0→∞/AUC0→∞) was also calculated. All results are expressed as mean ± SD. Comparisons regarding the pharmacokinetic parameters were carried out between sham and model groups using Student’s t-test, and p values less than 0.05 were considered to be significant.

[2] = in vivo; details: male, Sprague-Dawley, rat, po, 8 g/kg, oral administration of QSKL, plasma, mean ± SD, n = 6; for AUC(0-t): AUC0–t; for AUC(0-inf): AUC0–∞
Experimental: as §1, §2, §3, §4

[3] = QSKL-treated plasma samples, sham and model rats, single oral dose 8.0 g/kg
[4] = model group (MG, myocardial ischemia) rats
[5] = t1/2, model group (MG, myocardial ischemia) rats
[6] = male, Sprague-Dawley, rat, plasma, po, 8 g/kg, AUC0–t, model group (MG, myocardial ischemia) rats, oral administration of QSKL, plasma, mean ± SD, n = 6
[7] = male, Sprague-Dawley, rat, plasma, po, 8 g/kg, AUC0–t, sham group (SG) rats, oral administration of QSKL, plasma, mean ± SD, n = 6
[8] = male, Sprague-Dawley, rat, plasma, po, 8 g/kg, model group (MG, myocardial ischemia) rats, oral administration of QSKL, plasma, mean ± SD, n = 6
[9] = male, Sprague-Dawley, rat, plasma, po, 8 g/kg, sham group (SG) rats, oral administration of QSKL, plasma, mean ± SD, n = 6
[10] = male, Sprague-Dawley, rat, plasma, po, 8 g/kg, Cmax, model group (MG, myocardial ischemia) rats, oral administration of QSKL, plasma, mean ± SD, n = 6
[11] = male, Sprague-Dawley, rat, plasma, po, 8 g/kg, Cmax, sham group (SG) rats, oral administration of QSKL, plasma, mean ± SD, n = 6
[12] = male, Sprague-Dawley, rat, plasma, po, 8 g/kg, t1/2, model group (MG, myocardial ischemia) rats, oral administration of QSKL, plasma, mean ± SD, n = 6
[13] = male, Sprague-Dawley, rat, plasma, po, 8 g/kg, t1/2, sham group (SG) rats, oral administration of QSKL, plasma, mean ± SD, n = 6
[14] = male, Sprague-Dawley, rat, plasma, po, 8 g/kg, AUC0→t, model (myocardial ischemia, LAD ligation) rats, single oral dose of 8.0 g/kg QSKL, mean ± SD, n = 6
[15] = male, Sprague-Dawley, rat, plasma, po, 8 g/kg, AUC0→t, sham rats, single oral dose of 8.0 g/kg QSKL, mean ± SD, n = 6
[16] = male, Sprague-Dawley, rat, plasma, po, 8 g/kg, rats, after oral dosing QSKL 8.0 g/kg
[17] = rats, after oral dosing QSKL 8.0 g/kg

Compound | AUC(0-t) [1, 6] [ng·h/mL] | AUC(0-t) [1, 7] [ng·h/mL] | AUC(0-inf) [1, 8] [ng·h/mL] | AUC(0-inf) [1, 9] [ng·h/mL] | Cmax [1, 10] [ng/mL] | Cmax [1, 11] [ng/mL] | MRT [1, 8] [h] | MRT [1, 9] [h] | Tmax [1, 8] [h] | Tmax [1, 9] [h] | half-life [1, 12] [h] | half-life [1, 13] [h] | distribution in rat plasma (quantifiable or not) [1, 3] | other results
CCN1C[C@]2(COC)[C@H](O)C[C@H](OC)[C@@]34[C@@H]5C[C@@]6(O)[C@H](OC(=O)c7ccccc7)[C@@H]5[C@@](OC(C)=O)([C@@H]([C@H](OC)[C@H]23)[C@@H]14)[C@@H](O)[C@@H]6OC [aconitine] |  |  |  |  |  |  |  |  |  |  |  |  | unquantifiable in most QSKL-treated samples | 
COCC12CCC(OC)C34C5CC6(O)C(OC)C(O)C(O)(C5C6OC(=O)c5ccccc5)C(C(OC)C13)C4N(C)C2 (stereo not shown) [benzoylhypaconine] |  |  |  |  |  |  |  |  |  |  |  |  | quantifiable in most samples | AUC(0-t) [2, 4]: 0.926 ± 0.279 ng·h/mL; AUC(0-t) ([2]; sham group (SG) rats): 0.985 ± 0.167 ng·h/mL; AUC(0-inf) [2, 4]: 1.66 ± 0.331 ng·h/mL; AUC(0-inf) ([2]; sham group (SG) rats): 1.78 ± 0.905 ng·h/mL; Cmax [2, 4]: 0.466 ± 0.302 ng/mL; Cmax ([2]; sham group (SG) rats): 0.284 ± 0.209 ng/mL; MRT [2, 4]: 23.6 ± 7.39 h; MRT ([2]; sham group (SG) rats): 22.7 ± 14.9 h; Tmax [2, 4]: 0.43 ± 0.36 h; Tmax ([2]; sham group (SG) rats): 0.48 ± 0.33 h; half-life [2, 5]: 16.3 ± 5.46 h; half-life ([2]; t1/2, sham group (SG) rats): 15.6 ± 9.06 h
COCC12CN(C)C3C4C(OC)C1C3(C(OC)CC2O)C1CC2(O)C(OC)C(O)C4(O)C1C2OC(=O)c1ccccc1 (stereo not shown) [benzoylmesaconine] |  |  |  |  |  |  |  |  |  |  |  |  | quantifiable in most samples | AUC(0-t) [2, 4]: 7.34 ± 7.1 ng·h/mL; AUC(0-t) ([2]; sham group (SG) rats): 5.82 ± 2.93 ng·h/mL; AUC(0-inf) [2, 4]: 11.1 ± 11 ng·h/mL; AUC(0-inf) ([2]; sham group (SG) rats): 8.3 ± 6.14 ng·h/mL; Cmax [2, 4]: 3.1 ± 2.49 ng/mL; Cmax ([2]; sham group (SG) rats): 1.15 ± 0.778 ng/mL; MRT [2, 4]: 13.7 ± 6.58 h; MRT ([2]; sham group (SG) rats): 20.1 ± 10.3 h; Tmax [2, 4]: 0.47 ± 0.33 h; Tmax ([2]; sham group (SG) rats): 0.42 ± 0.37 h; half-life [2, 5]: 9.77 ± 5.36 h; half-life ([2]; t1/2, sham group (SG) rats): 13 ± 6.34 h
CC1(C)[C@@H](O)CC[C@]2(C)[C@H]3C(=O)C=C4[C@@H]5C[C@@](C)(C(=O)O)CC[C@]5(C)CC[C@@]4(C)[C@]3(C)CC[C@@H]12 [glycyrrhetic acid] | 5040 ± 1860 | 3200 ± 298 | 14500 ± 5750 |  |  | 230 ± 57.1 | 41.9 ± 21.5 |  | 13.3 ± 8.55 | 14 ± 4.9 | 26.3 ± 15.6 |  |  | AUC(0-t) [1, 14]: 5040 ± 1860 ng·h/mL; AUC(0-t) [1, 15]: 3200 ± 298 ng·h/mL; Cmax ([1]; male, Sprague-Dawley, rat, plasma, po, 8 g/kg, Cmax, sham rats, single oral dose of 8.0 g/kg QSKL, mean ± SD, n = 6): 230 ± 57.1 ng/mL; Tmax [1, 16]: > 12 h; Cmax ([1]; model (myocardial ischemia, LAD ligation) rats, single oral dose of 8.0 g/kg QSKL, mean ± SD, n = 6): 376 ± 196 ng/mL; Cmax ([1]; model group (MG, myocardial ischemia) rats, oral administration of QSKL, plasma, mean ± SD, n = 6): 376 ± 196 ng/mL; shape of plasma concentration-time profile [1, 17]: Multiple-peak profiles
C[C@@H]1O[C@@H](O[C@@H]2[C@@H](O)[C@H](OCCc3ccc(O)c(O)c3)O[C@H](COC(=O)/C=C/c3ccc(O)c(O)c3)[C@H]2O)[C@H](O)[C@H](O)[C@H]1O [isoacteoside] |  |  |  |  |  |  |  |  |  |  |  |  | unquantifiable in most QSKL-treated samples | 
C=CC(C)(C)c1cc(/C=C/C(=O)c2ccc(O)cc2)c(OC)cc1O [licochalcone A] |  |  |  |  |  |  |  |  |  |  |  |  | unquantifiable in most QSKL-treated samples | 

Second part, led by results:

AUC(0-t) [1, 6] [ng·h/mL] | AUC(0-t) [1, 7] [ng·h/mL] | AUC(0-inf) [1, 8] [ng·h/mL] | AUC(0-inf) [1, 9] [ng·h/mL] | Cmax [1, 10] [ng/mL] | Cmax [1, 11] [ng/mL] | MRT [1, 8] [h] | MRT [1, 9] [h] | Tmax [1, 8] [h] | Tmax [1, 9] [h] | half-life [1, 12] [h] | half-life [1, 13] [h] | Compound | distribution in rat plasma (quantifiable or not) [1, 3] | other results
0.89 ± 0.284 | 1.03 ± 0.181 | 1.04 ± 0.268 | 3.09 ± 1.95 | 0.347 ± 0.197 | 0.3 ± 0.244 | 15 ± 4.54 | 55.9 ± 34.6 | 0.28 ± 0.24 | 0.33 ± 0.29 | 9.27 ± 3.21 | 38.2 ± 24.5 | COc1ccc(-c2coc3cc(O)ccc3c2=O)cc1O [calycosin] | quantifiable in most samples | 
1.2 ± 0.482 | 0.966 ± 0.351 | 1.32 ± 0.472 | 1.22 ± 0.609 | 0.47 ± 0.291 | 0.243 ± 0.127 | 5.47 ± 2.56 | 7 ± 2.97 | 0.51 ± 0.46 | 0.61 ± 0.53 | 3.81 ± 1.89 | 4.7 ± 2.32 | COc1ccc(-c2coc3cc(O)ccc3c2=O)cc1 [formononetin] | quantifiable in most samples | 
72.8 ± 27.8 | 37.9 ± 7.11 | 170 ± 69.1 | 130 ± 69.1 | 8.87 ± 5.97 | 3.34 ± 1.12 | 40.2 ± 21.7 | 63.7 ± 34.4 |  | 1.46 ± 1.35 | 27.8 ± 14.2 | 43.2 ± 25.4 | CC1(C)[C@@H](O[C@H]2O[C@H](C(=O)O)[C@@H](O)[C@H](O)[C@H]2O[C@@H]2O[C@H](C(=O)O)[C@@H](O)[C@H](O)[C@H]2O)CC[C@]2(C)[C@H]3C(=O)C=C4[C@@H]5C[C@@](C)(C(=O)O)CC[C@]5(C)CC[C@@]4(C)[C@]3(C)CC[C@@H]12 [glycyrrhizic acid] | quantifiable in most samples | AUC(0-t) [1, 14]: 72.8 ± 27.8 ng·h/mL; AUC(0-t) [1, 15]: 37.9 ± 7.11 ng·h/mL; shape of plasma concentration-time profile [1, 17]: Multiple-peak profiles
2.4 ± 2.04 |  | 2.2 ± 1.77 |  | 1.02 ± 0.692 |  | 18.7 ± 16.7 |  | 0.56 ± 0.38 |  | 16.1 ± 11.3 |  | C[C@]1(OC(=O)/C=C/c2ccccc2)C[C@@H](O)[C@]2(O)C=CO[C@@H](O[C@@H]3O[C@H](CO)[C@@H](O)[C@H](O)[C@H]3O)[C@@H]21 [harpagoside] |  | Cmax ([1]; male, Sprague-Dawley, rat, plasma, po, 8 g/kg, Cmax, model (myocardial ischemia, LAD ligation) rats, single oral dose of 8.0 g/kg QSKL, mean ± SD, n = 6): 1.02 ± 0.692 ng/mL; distribution in rat plasma (quantifiable or not) ([1]; plasma of the model group, single oral dose 8.0 g/kg QSKL): always quantifiable; distribution in rat plasma (quantifiable or not) ([1]; samples from the sham group, single oral dose 8.0 g/kg QSKL): lower than its LOQ
1.56 ± 0.668 | 1.87 ± 1.21 | 1.71 ± 0.74 | 2.07 ± 1.31 | 0.401 ± 0.103 | 0.389 ± 0.137 | 8.14 ± 2.95 | 7.85 ± 0.6 | 0.37 ± 0.28 | 0.15 ± 0.13 | 4.69 ± 2.06 | 4.37 ± 1.37 | O=C(/C=C/c1ccc(O)cc1)c1ccc(O)cc1O [isoliquiritigenin] |  | shape of plasma concentration-time profile [1, 17]: Multiple-peak profiles
19.5 ± 3.53 | 16.5 ± 3.91 | 29.2 ± 4.1 | 24.9 ± 2.95 | 4.21 ± 3.41 | 2.04 ± 1.07 | 21.1 ± 8.23 | 25.1 ± 13.5 | 0.46 ± 0.25 | 0.37 ± 0.19 | 14.2 ± 5.79 | 15.8 ± 9.38 | COC(=O)C1=CO[C@@H](O[C@@H]2O[C@H](CO)[C@@H](O)[C@H](O)[C@H]2O)[C@@H]2[C@H](C)O[C@@H](O)C[C@H]12 [morroniside] | quantifiable in most samples | 
4.28 ± 0.678 | 3.18 ± 0.664 | 7.17 ± 3.08 | 4.77 ± 1.45 | 0.349 ± 0.089 | 0.376 ± 0.15 | 26.4 ± 14.9 | 20.9 ± 5.14 | 8.71 ± 8.03 | 0.67 ± 0.3 | 18 ± 10.8 | 13.8 ± 4.05 | Cc1coc2c1C(=O)C(=O)c1c-2ccc2c1CCCC2(C)C [tanshinone IIA] | quantifiable in most samples | AUC(0-t) [1, 14]: 4.28 ± 0.678 ng·h/mL; AUC(0-t) [1, 15]: 3.18 ± 0.664 ng·h/mL; Tmax [1, 16]: 8 h

— article PMC6150229, “Simultaneous Determination of Twenty-Five Compounds in Rat Plasma Using Ultra-High Performance Liquid Chromatography-Polarity Switching Tandem Mass Spectrometry and Its Application to a Pharmacokinetic Study” (Molecules : A Journal of Synthetic Chemistry and Natural …, 2017)
